{"source": "patent US20100113580A1", "about": "“COMBINATION THERAPIES FOR THE TREATMENT OF OBESITY” (priority 2008, published 2010)", "origin": "cited, not measured here", "data": [{"conditions": "literature studies of single weight loss drugs", "values": [{"smiles": "CCN[C@@H](C)Cc1cccc(C(F)(F)F)c1", "note": "[dexfenfluramine]", "weight loss of body weight for drug compared with placebo": "about 5%"}, {"smiles": "CCCCCCCCCCC[C@@H](C[C@@H]1OC(=O)[C@H]1CCCCCC)OC(=O)[C@H](CC(C)C)NC=O", "note": "[orlistat]", "weight loss of body weight for drug compared with placebo": "about 5%"}, {"smiles": "CC(C)CC(N(C)C)C1(c2ccc(Cl)cc2)CCC1", "note": "(stereo not drawn) [sibutramine]", "weight loss of body weight for drug compared with placebo": "about 5%"}]}]}
